Where two headings read alike, the source gives them in different places.
How the values were obtained:
lamina II neurons = test: Patch clamp recording of sEPSCs in lamina II neurons of spinal cord slices; type: cell-based, mice
Description: (§1) Spinal cord slice preparation. As previously reported^39, a portion of the lumbar spinal cord (L4-L5) was removed from young mice (3-4 week old) under urethane anesthesia (1.5-2.0 g/kg, i.p.) and transverse spinal cord slices were cut (600 μm) on a vibrating microslicer. The slices were perfused with Kreb's solution (8 ml/min) for >2 h prior to experiments. Some slices were stimulated with TNF-α (10 ng/ml, 5 min), the slices were fixed with 4% paraformaldehyde for 1 h, and processed pERK immunohistochemistry using thin sections (15 μm)^13.
(§2) Patch clamp recordings in spinal slices. Whole cell patch-clamp recordings were performed in lamina II neurons in voltage clamp mode^39. After establishing the whole-cell configuration, neurons were held at the holding potentials of −70 mV for recording spontaneous excitatory postsynaptic current (sEPSC). NMDA-induced currents were recorded by bath application of NMDA (50 μM, Sigma) at the holding potential of −50 mV. Membrane currents were amplified with an Axopatch 200A amplifier (Axon Instruments) in voltage-clamp mode. pCLAMP 6 was used and Mini Analysis (Synaptosoft Inc.) software to store and analyze the data. Those cells showing >5% changes from the baseline levels were reagrded as responding ones^24.
(§3) Resolvins were also used for intraplantar injection. RvD1 or RvE1 was injected into the plantar surface of a hindapaw [20 ng, 20 μl , in 1% ethanol (Supplementary FIG. 5a, 5b) or in 10% ethanol (FIG. 2e, Supplementary FIG. 1d)]. DRG cultures were incubated with RvE1 (10 ng/ml, 0.1% ethanol in culture medium) and perfused spinal cord slices with RvE1 (1 ng/ml, in 0.01% ethanol and Kreb's solution).
(§4) Perfusion of spinal cord slices: Spinal cord slices were incubated with chemerin (100 ng/ml, in Kreb's solution), TNF-α (10 ng/ml, in Kreb's solution), capsaicin (100 nM, in 0.01% DMSO and Kreb's solution), TRPV1 antagonist capsazepine (Sigma, 10 μM, in 0.01% DMSO and Kreb's solution), pertussix toxin (0.5 μg/ml, in Kreb's solution), and MEK inhibitor PD98059 and U0126 (CalBiochem, 1 μM, in 0.01% DMSO and Kreb's solution). For pertussix toxin treatment, spinal cord slices were incubated with the toxin for 3 h before stimulation.

[1] = system: glutamate NMDA receptors (NMDARs); test: NMDA-induced currents in dorsal horn (lamina II) neurons of spinal cord slices; type: cell-based, mice; details: NMDA 50 μM; TNF-α 10 ng/ml; PD98059 1 μM, U0126 1 μM, capsazepine 10 μM
Description: as §1, §2, §3, §4

[2] = system: SNL-induced neuropathic pain; test: Neuropathic pain model induced by spinal nerve ligation (SNL); type: in vivo, mice; details: for SNL-induced heat hyperalgesia: 10 ng, i.t., one day after spinal nerve ligation
Description: (§5) Animals and pain models. Adult CD1 mice (male, 25-32 g) were used for most experiments. Knockout mice were used lacking TNFR1/II (Tnfrsf1a/1b^−/−) and TRPV1 (Trpv1^−/−) and C57BL/6 wild-type control mice, all from Jackson, for some experiments. All animal procedures performed in this study were approved by the Harvard Medical Area Standing Committee on Animals. 20 μl of diluted formalin (5%), carrageenan (CRG, 1%), or complete Freund's adjuvant (CFA) were injected into the plantar surface of a hindpaw to produce acute, persistent, or chronic inflammatory pain, respectively. Postoperative pain was also produced through hindpaw incision^36 and neuropathic pain by ligation of the spinal nerve^37.
(§6) Behavioral analysis. Mice were habituated in the testing environment for two days and performed behavioral testing in a blinded manner. Formalin-evoked spontaneous inflammatory pain was assessed by measuring duration (seconds) animals spent on licking/flinching the affected paws every 5 min for 45 min. Capsaicin-induced spontaneous pain was aslo assessed for 10 min. For testing mechanical sensitivity, mice were put in boxes on an elevated metal mesh floor and stimulated hindpaw with a series of von Frey hairs with logarithmically incrementing stiffness (0.02-2.56 grams, Stoelting), presented perpendicular to the plantar surface. It was determined the 50% paw withdrawal threshold using Dixon's up-down method^40. For testing heat sensitivity, mice were placed in plastic boxes and tested heat sensitivity using Hargreaves radiant heat apparatus (IITC Life Science Inc.). The basal paw withdrawal latency was adjusted to 9-12 seconds and set a cut-off of 20 seconds to prevent tissue damage. The percent maximal possible antinociceptive effect (% M.P.E) was calculated using the equation % M.P.E.=[(PL−BL2)/(BL1−BL2)]×100. BL1, baseline latency before inflammation; BL2, baseline latency after inflammation but before drug injection; PL, latency post drug injection.

[3] = system: complete Freund's adjuvant (CFA)-evoked heat hyperalgesia; test: CFA-evoked heat hyperalgesia (paw withdrawal latency, Hargreaves); type: in vivo, mice; details: intrathecal; for effective doses relative to that of RvE1: CFA heat hyperalgesia
Description: as §5
(§7) Reagents and administration. RvE1 and RvD1 were suspended in 1% or 10% ethanol as vehicle for investigating acute (<1 h) and persistent (1-6 h) effects of resolvins on inflammatory pain. The reagents (10 μl) were delivered to the cerebral spinal fluid via intrathecal injection made by a spinal cord puncture between the L5 and L6 level with a 30G needle^38.
as §6
(§8) Intrathecal injection. To avoid systemic effects of drugs and target spinal mechanisms, drugs were delivered into cerebral spinal fluid (CSF) space around lumbosacral spinal cord via intrathecal (i.t.) administration. Spinal cord puncture was made with a 30G needle between the L5 and L6 level to deliver the reagents (10 μl) to the cerebral spinal fluid (Hylden and Wilcox, 1980)^5. […] In addition to spinal cord cells, intrathecal drug administration also affects DRG cells^6,7.
The anti-hyperalgesic efficacy of RvE1 prepared in 1% and 10% ethanol was compared on post-CFA day 3.

[4] = system: formalin-induced inflammatory pain; test: Formalin-induced spontaneous inflammatory pain (licking/flinching duration); type: in vivo, mice; details: for reversal of RvE1's antinociceptive action, formalin 2nd phase: intrathecal, pertussis toxin 0.2 μg, naloxone 2 μg, ChemR23 siRNA 3 μg daily for 3 days before formalin; for formalin-induced pain behavior, 2nd phase: preemptive intrathecal injection, RvE1 0.3 and 1.0 ng, morphine 10 to 500 ng, NS-398 0.1, 1, and 10 μg, chemerin 0.45 to 100 ng
Description: as §5, §7, §6, §8
Intrathecal injection: DHA and EPA (Cayman Chemical, 10 μg, prepared in 1% ethanol), COX-2 inhibitor NS-398 (Sigma, 0.1, 1, and 10 μg, prepared in 1% ethanol in FIG. 1a-c or in 10% ethanol in FIG. 2c), morphine (Sigma, 10 to 500 ng, prepared in 1% ethanol in FIG. 1a-c), naloxone (Sigma, 2 μg, prepared in 1% ethanol), pertussis toxin (Tocris Bioscience, 0.2 μg, prepared in saline), chemerin (R & D Systems, 0.45 to 100 ng, prepared in 1% ethanol), TNF-α (R & D Systems, 20 ng, prepared in saline), and capsaicin (Sigma, 0.5 μg in 10 μl, prepared in 1% DMSO) were delivered. To examine whether pretreatment of RvE1 attenuated TNF-α-induced persistent hyperalgesia at 1, 3, and 24 h, RvE1 and TNF-α were mixed and injected at the same time (FIG. 3c). To examine whether pretreatment of RvE1 attenuates capsaicin-induced acute spontaneous pain, RvE1 and capsaicin were mixed and injected at the same time (FIG. 3f).

inflammatory pain = test: Inflammatory pain models induced by formalin or CFA (summary statements); type: in vivo, mouse
Description: as §5, §6

ChemR23 = ChemR23 western blotting after siRNA knockdown; type: in vivo, mice
Description: siRNAs were mixed with the transfection reagent polyethyleneimine (PEI, Fermentas), 10 min before injection, to increase cell membrane penetration and reduce the degradation (Tan et al., 2005; 2009)^9,10. PEI was dissolved in 5% glucose, and […] of siRNA was mixed with 0.18 μl of PEI, as shown in our previous study (Kawasaki et al., 2008)^7. In the formalin model, siRNA was administrated via intrathecal route (3 μg), delivered at 72 h, 48 h, and 24 h before formalin injection (supplementary FIG. 1a, b). In the carrageenan model, siRNA was administrated via intraplantar route (4 μg), delivered at 48 h, 24 h, and 3 h before carrageenan injection (supplementary FIG. 1c, d). The knockdown effects of ChemR23 siRNA were examined by Western blotting using a ChemR23 antibody (Santa Cruz).
Animals were transcardially perfused with PBS, and the skin, DRG, and spinal cord tissues were rapidly removed and homogenized in a lysis buffer containing a cocktail of protease inhibitors and phosphatase inhibitors. The protein concentrations were determined by BCA Protein Assay (Pierce), and 30 μg of proteins were loaded for each lane and separated on SDS-PAGE gel (4-15%, Bio-Rad). After the transfer, the blots were incubated overnight at 4° C. with polyclonal antibody against ChemR23 (goat, 1:200, Santa Cruz). For loading control, the blots were probed with tubulin antibody (mouse, 1:5000, Sigma).

[5] = system: carrageenan (CRG)-elicited heat hyperalgesia; test: Carrageenan (CRG)-elicited heat hyperalgesia; type: in vivo, mice; details: intraplantar ChemR23 siRNA 4 μg at 48 h, 24 h, and 3 h before carrageenan; 4 h after CRG
Description: as §5, §6
Resolvins were also used for intraplantar injection. […]

[6] = capsaicin 100 nM, RvE1 1 ng/ml, chemerin 100 ng/ml, PD98059 and U0126 1 μM

N#CC(=C(/N)Sc1ccccc1N)/C(C#N)=C(\N)Sc1ccccc1N [U0126, reference compound]
capsaicin-evoked sEPSC frequency increase (lamina II neurons): blocked
TNF-α-induced potentiation of NMDA currents (NMDAR activation) [1]: blocked

O=C(O)CCC[C@H](O)\C=C/C=C/C=C/[C@H](O)C/C=C\C=C\[C@@H](O)COc1ccc(F)cc1 [19-pf-RvE1, 19-(p-fluorophenoxy)-RvE1]
SNL-induced heat hyperalgesia [2]: more persistent reduction in heat hyperalgesia
SNL-induced heat hyperalgesia ([2]; listed as modified RvE1): reduces SNL-induced heat hyperalgesia
time for which hyperalgesia was reduced ([3]; post-CFA day 3): 6 h

C=CCN1CC[C@]23c4c5ccc(O)c4O[C@H]2C(=O)CC[C@@]3(O)[C@H]1C5 [naloxone]
reversal of morphine's antinociceptive effect, formalin 2nd phase ([4]; intrathecal naloxone 2 μg): reversed
reversal of RvE1's antinociceptive action, formalin 2nd phase [4]: not RvE1's effect

CC/C=C\C[C@H](O)\C=C/C=C/C=C/[C@H](O)C/C=C\C/C=C\CCC(=O)O [PD1]
nerve injury-induced hyperalgesia ([2]; neuropathic pain model induced by spinal nerve ligation): potently attenuate
pain-like behaviors (inflammatory pain): potently inhibit

CN1CC[C@]23c4c5ccc(O)c4O[C@H]2[C@@H](O)C=C[C@H]3[C@H]1C5 [morphine]
formalin-induced pain behavior, 2nd phase [4]: Reduction

CC/C=C\C/C=C\C/C=C\C/C=C\C/C=C\CCCC(=O)O [EPA, eicosapentaenoic acid, reference compound]
effective doses relative to that of RvE1 [3]: 10,000 times higher

CC/C=C\C/C=C\C/C=C\C/C=C\C/C=C\C/C=C\CCC(=O)O [DHA, docosahexaenoic acid, reference compound]
effective doses relative to that of RvE1 [3]: 10,000 times higher

ChemR23 siRNA: 5′-AACACUGUGUGGUUUGUCAACtt-3′, synthesized by Dharmacon (guide AACACUGUGUGGUUUGUCAACTT; chemistry not given here)
reversal of RvE1's antinociceptive action, formalin 2nd phase [4]: reverses RvE1-induced antinociceptive effect
ChemR23 expression in the hindpaw skin (ChemR23; intraplantar siRNA 4 μg at 48 h, 24 h, and 3 h before carrageenan): reduces ChemR23 expression in the hindpaw skin
ChemR23 expression in the DRG (ChemR23; intrathecal siRNA 3 μg, daily for 3 days, before formalin injection): reduces ChemR23 expression in the DRG
reversal of RvE1-induced anti-hyperalgesic effect [5]: reverses RvE1-induced anti-hyperalgesic effect

pertussis toxin
reversal of RvE1's antinociceptive action, formalin 2nd phase [4]: abrogated

CS(=O)(=O)Nc1ccc([N+](=O)[O-])cc1OC1CCCCC1 [NS-398]
formalin-induced pain behavior, 2nd phase [4]: Reduction

COc1cccc(-c2cc(=O)c3ccccc3o2)c1N [PD98059, reference compound]
capsaicin-evoked sEPSC frequency increase (lamina II neurons; [6]): blocked
TNF-α-induced potentiation of NMDA currents (NMDAR activation) [1]: blocked

COc1cc(CNC(=O)CCCC/C=C/C(C)C)ccc1O [capsaicin, reference compound]
increase in sEPSC frequency (lamina II neurons; capsaicin 100 nM): 2 fold

Oc1cc2c(cc1O)CN(C(=S)NCCc1ccc(Cl)cc1)CCC2 [capsazepine, reference compound]
TNF-α-evoked sEPSC frequency increase (lamina II neurons; TNF-α 10 ng/ml, RvE1 1 ng/ml, capsazepine 10 μM): reduced
TNF-α-induced potentiation of NMDA currents (NMDAR activation) [1]: but not capsazepine blocked

CCC(=O)/C=C/C=C\C[C@@H](O)/C=C/C=C/C=C\[C@@H](O)CCCC(=O)O [18-oxo-RvE1, reference compound]
CFA-evoked heat hyperalgesia ([3]; post-CFA day 3, DHA and EPA 10 μg): essentially inactive

B1: chemerin: a peptide agonist for ChemR23 (R & D Systems) (protein, UniProt Q99969 21-157, looked up)
Retinoic acid receptor …: ELTEAQRRGLQVALEEFHKHPPVQWAFQETSVESAVDTPFPAGIFVRLEFKLQQTSCRKRDWKKPECKVRPNGRKRKCLACIKLGSEDKVLGRLVHCPIETQVLREAEEHQETQCLRVQRAGEDPHSFYFPGQFAFS
modifications: Chemerin
capsaicin-evoked sEPSC frequency increase (lamina II neurons; [6]): abolished
formalin-induced pain behavior, 2nd phase [4]: dose-dependently attenuated

Reference: patent US20120245229A1, “METHOD FOR TREATING NEUROPATHIC PAIN” (priority 2009, published 2012)
